Experiments:
platelet cyclo-oxygenase = settings: horse, oral; cited from earlier work
swine influenza = assay type: in vivo, swine (finishing hogs)
chronic laminitis = test: Horse with chronic laminitis, Ketoprofen in the water; assay type: in vivo; settings: 1 mg per pound in the water for 2 weeks
Description: An equine client with a horse with chronic laminitis was using phenylbutazone to try to control the inflammation and pain associated with the disease. This product had to be given to the horse daily by the owner. […] The results were very good.

[1] = system: PRRS (Porcine Respiratory and Reproductive Syndrome) Virus; test: PRRS virus outbreak in swine nursery, Ketoprofen orally; assay type: in vivo; settings: orally for 7 days along with same other therapy as controls
Description: A swine client with a 10,000 head nursery was experiencing severe mortality due to a PRRS (Porcine Respiratory and Reproductive Syndrome) Virus outbreak. They had used antibiotics with only partial success and were seeing mortalities as high as 30 percent in the group. […] We also saw less chronic pigs in the treatment group 3% versus 15% in the controls.

[2] = 1 mg/pound for 3 days orally through drinking water

CN=C1CCN(c2cccc(C(F)(F)F)c2)N1 [BW540C]
duration of inhibition of platelet cyclo-oxygenase (platelet cyclo-oxygenase): 24 h

CC(C(=O)O)c1cccc(C(=O)c2ccccc2)c1 (centres unmarked) [Ketoprofen]
morbidity at the time of the outbreak (swine influenza; [2]): 10%
mortality (swine influenza; [2]): 2.1%
average time to market, less than the control group (swine influenza; 1 mg/pound for 3 days orally through drinking water, 150 pound hogs marketed at 260 pounds): 9 days
follow-up mass medication with antibiotics (swine influenza; two weeks after the outbreak): did not require any mass medication with antibiotics
pain compared with previous treatment (phenylbutazone) (chronic laminitis): less painful
chronic pigs [1]: 3%
mortality [1]: 7%

From patent publication US20060147481A1 (priority 2005, published 2006)
